Assay results: patent US20240269304A1, “BCL-XL INHIBITOR ANTIBODY-DRUG CONJUGATES AND METHODS OF USE THEREOF” (Novartis AG, priority 2020, published 2024)
Read-outs that look alike come from different tables or passages of the source.

Columns and labels:
[1] = system: NCI-H1650; test: CellTiter Glo 3D spheroid proliferation/survival, 5 days, NCI-H1650, 0.0005-500 nM (Example 10); format: cell-based, human; settings: spheroids; for IC50: 0.0005-500 nM
Method: One target was assessed: EGFR.
The ability of the BCL-xL antibody drug conjugates to inhibit cell proliferation and survival was assessed using the Promega CellTiter-Glo® proliferation assay.
Cell lines were cultured in media that is optimal for their growth at 5% CO2, 37° C. in a tissue culture incubator. Prior to seeding for the proliferation assay, the cells were split at least 2 days before the assay to ensure optimal growth density. […] Cell viability and cell density were determined using a cell counter (Vi-Cell XR Cell Viability Analyzer, Beckman Coulter).
Cells were seeded at a density of 3,000 cells per well in 45 uL of standard growth media. Plates were spun in a centrifuge for 5 minutes and 1,000 RPM. Plates were incubated at 5% CO2, 37° C. for 72 hours in a tissue culture incubator. On the day of dosing, EGFR targeting BCL-xL ADCs were prepared at 1OX in standard growth media. The prepared drug treatments were then added to the cells resulting in final concentrations of 0.0005-500 nM and a final volume of 50 μL per well. Each drug concentration was tested in quadruplets. Plates were incubated at 5% CO2, 37° C. for 5 days in a tissue culture incubator.
Cell viability was assessed through the addition of 40 μL of CellTiter Glo 3D Cell Viability Assay substrate (Promega, cat #G9681), a reagent which lyses cells and measures total adenosine triphosphate (ATP) content. Wells were mixed thoroughly and plates were incubated at room temperature for 30 minutes to stabilize luminescent signals prior to reading using a luminescence reader (EnVision Multilabel Plate Reader, PerkinElmer).
To evaluate the effect of the drug treatments, luminescent counts from wells containing untreated cells (100% viability) were used to normalize treated samples. […] IC50 and Amax values were extrapolated from the resultant curves.

[2] = system: ALL-SILL (T-ALL); test: CellTiter-Glo viability 72 h, single agent or 1/1 combination, ALL-SIL (Example 9); format: cell-based; settings: single agent or 1/1 combination as labelled
Method: Cell lines were cultured in the media described above at 37° C. in a humidified atmosphere containing 5% CO2. […] Effects of payloads or ADCs on cell viability were assessed after 3 days of incubation at 37° C./5% CO2 by quantification of cellular ATP levels using CellTiter-Glo reagent (Promega Ref: G7571) at 75 μL reagent/well. All the conditions were tested in triplicates. Luminescence was quantified on a multipurpose plate reader. IC50s were calculated using standard four-parametric curve fitting.

[3] = ADC stability study: % aggregates by SEC after incubation at 37° C. for 168 h; format: physicochemical
Method: Size Exclusion Chromatography: Size exclusion chromatography (SEC) was performed for quality control of each ADCs by measuring monomer percentage of the conjugate. The analysis was performed on analytical column Superdex 200 Increase 5/150 GL (GE Healthcare, 28990945) in isocratic conditions 100% PBS pH7.4 (Sigma Life Science, P3813, 10PAK), flow 0.45 mI/min for 12 minutes. The % aggregate fraction of the conjugate sample was quantified based on the peak area absorbance at 280 nm. Its calculation was based on the ratio between the high molecular weight eluent at 280 nm divided by the sum of peak area absorbance at the same wavelength of the high molecular weight and monomeric eluents multiplied by 100.
Characterization of the exemplary ADCs is summarized in Table 13 (coupling, LC-MS method, OAR, aggregation status, ADO stability and yield). The average OAR values were determined using the above LC-MS methods and the percentage of aggregates was measured by size exclusion chromatography (SEC) during the quality control of the ADO and after the stability study (incubation at 37° C. for 168 h).

[4] = system: ALL-SIL cells; test: CellTiterGlo (CTG) cell viability, 72 h, ALL-SIL (Example 8); format: cell-based
Method: ALL-SIL cells were cultivated in RPMI supplemented with 20% heat inactivated fetal bovine serum, penicillin (100 IU/ml), streptomycin (100 μg/ml) and L-glutamine (2 mM). Cell lines were cultured at 37° C. in a humidified atmosphere containing 5% CO2. Cells were seeded in 96 well clear bottom plates (96 well clear-bottom, white, Corning reference 3903) and exposed to the payloads or ADCs for 72 h (serially diluted; 9 concentrations each, triplicates). Effects of payloads or ADCs on cell viability were assessed after 3 days of incubation at 37° C./5% CO2 by quantification of cellular ATP levels using CellTiterGlo at 75 μL reagent/well. All the conditions were tested in triplicates. Luminescence was quantified on a multipurpose plate reader. IC50s were calculated using standard four-parametric curve fitting. […] Each experiment was performed at least twice, with results being reproducible.

[5] = system: DND-41 cells; test: CellTiterGlo (CTG) cell viability, 72 h, DND-41 (Example 8); format: cell-based
Method: DND-41 cells were cultivated in RPMI supplemented with 10% heat inactivated fetal bovine serum, penicillin (100 IU/ml), streptomycin (100 μg/ml) and L-glutamine (2 mM). Cell lines were cultured at 37° C. in a humidified atmosphere containing 5% CO2. […] Effects of payloads or ADCs on cell viability were assessed after 3 days of incubation at 37° C./5% CO2 by quantification of cellular ATP levels using CellTiterGlo at 75 μL reagent/well. All the conditions were tested in triplicates. Luminescence was quantified on a multipurpose plate reader. IC50s were calculated using standard four-parametric curve fitting.

[6] = system: H1650 cells; test: CellTiterGlo (CTG) cell viability, 3D, 120 h, H1650 (Example 8); format: cell-based, human
[7] = n1, read-out: ALL-SILL (T-ALL) IC50 n1
[8] = n2, read-out: ALL-SILL (T-ALL) IC50 n2
[9] = experiment n1, read-out: ALLSIL CTG 72 h IC50 nM n1
[10] = experiment n2, read-out: ALLSIL CTG 72 h IC50 nM n2
[11] = mean of n1 and n2, read-out: ALLSIL CTG 72 h IC50 nM Mean of n1 and n2
[12] = experiment n1, read-out: DND41 CTG 72 h IC50 nM n1
[13] = experiment n2, read-out: DND41 CTG 72 h IC50 nM n2
[14] = mean of n1 and n2, read-out: DND41 CTG 72 h IC50 nM Mean of n1 and n2

SMILES | Stab w1 +37° C. % Agg (by SEC) [3] | IC50 [4, 9] | IC50 [4, 10] | IC50 [4, 11] | IC50 [5, 12] | IC50 [5, 13] | IC50 [5, 14] | further results
COCCOCCOCCOCCOCCOCCOCCOCCn1cc(COC(=O)N(C)Cc2cc(NC(=O)[C@H](CCCNC(N)=O)NC(=O)[C@@H](NC(=O)CCOCCN3C(=O)CC(C)C3=O)C(C)C)ccc2C[N+](C)(C)CC#Cc2ccc(OCCCc3sc(N4CCCc5c4nnc(Nc4nc6ccccc6s4)c5C)nc3C(=O)O)c(F)c2)nn1 (mixture of isomers) [EGFR1-L4A-P1] | – | – | – | – | – | – | – | IC50 [1]: < 0.686 nM
Cc1c(Nc2nc3ccccc3s2)nnc2c1CCCN2c1ccc(-c2cnn(CC34CC5(C)CC(C)(CC(CCCNCCCO)(C5)C3)C4)c2C)c(C(=O)O)n1 [P40, 6-[3-(1,3-benzothiazol-2-ylamino)-4-methyl-6,7-dihydro-5H-pyrido[2,3-c]pyridazin-8-yl]-3-[1-[[3-[3-(3-hydroxypropylamino)propyl]-5,7-dimethyl-1-adamantyl]methyl]-5-methyl-pyrazol-4-yl]pyridine-2-carboxylic acid] | – | – | – | – | – | – | – | IC50 [2, 7]: 1.06 nM; IC50 [2, 8]: 1.26 nM
Cc1cc(N(C)c2nc(C(=O)O)c(CCCOc3ccc(C#CCN(C)C(=O)OCc4ccc(NC(=O)[C@H](CCCNC(N)=O)NC(=O)[C@@H](NC(=O)CCOCCN5C(=O)CC(C)C5=O)C(C)C)cc4COCc4cn(CCOCCOCCOCCOCCOCCOCCOCCOCCC(=O)O)nn4)cc3F)s2)nnc1Nc1nc2ccccc2s1 (mixture of isomers) [EGFR1-L7C-P7] | – | – | – | – | – | – | – | IC50 [1]: < 55.6 nM
Cc1c(Nc2nc3ccccc3s2)nnc2c1CCCN2c1nc(C(=O)O)c(CCCOc2ccc(C#CCN(C)C(=O)COc3ccc(NC(=O)[C@H](CCCNC(N)=O)NC(=O)[C@@H](NC(=O)CCOCCN4C(=O)CC(C)C4=O)C(C)C)cc3CN(C)C(=O)OCc3cn(CCOCCOCCOCCOCCOCCOCCOCCOCCC(=O)O)nn3)cc2F)s1 (mixture of isomers) [EGFR1-L3C-P3] | – | – | – | – | – | – | – | NCI-H1650 Amax (Span) [1]: 100.6
COCOCCOCCOCCOCCOCCOCCOCCn1cc(COCc2cc(NC(=O)[C@@H](CCCNC(N)=O)NC(=O)[C@H](NC(=O)CCOCCN3C(=O)CC(C)C3=O)C(C)C)ccc2C[N+](C)(C)CC#Cc2ccc(OCCCc3sc(N4CCCc5c4nnc(Nc4nc6ccccc6s4)c5C)nc3C(=O)O)c(F)c2)nn1 (mixture of isomers) [EGFR1-L8A-P1] | – | – | – | – | – | – | – | IC50 [1]: < 2.06 nM
Cc1cc(N(CCCO)C2=NC(C(=O)O)=C(CCCOc3ccc(C#CCN(C)C(=O)OCc4ccc(NC(=O)[C@](C)(CCCNC(N)=O)NC(=O)[C@@H](NC(=O)CCOCCN5C(=O)CC(C)C5=O)C(C)C)cc4)cc3F)C2)nnc1Nc1nc2ccccc2s1 (stereo partly drawn) [Ab D - L9C-P45] | 2% | 0.36 nM | 0.38 nM | 0.37 nM | > 100 nM | > 100 nM | > 100 nM | –
Cc1cc(N(CCCC(O)CO)C2=NC(C(=O)O)=C(CCCOc3ccc(C#CCN(C)C(=O)OCc4ccc(NC(=O)[C@H](CCCNC(N)=O)NC(=O)[C@@H](NC(=O)CCOCCN5C(=O)CC(C)C5=O)C(C)C)cc4)cc3F)C2)nnc1Nc1nc2ccccc2s1 (stereo partly drawn) [Ab D - L9C-P46] | 6% | 0.18 nM | 0.2 nM | 0.19 nM | > 100 nM | > 100 nM | > 100 nM | –
CC(=O)C1=C(CCCOc2ccc(C#CCC(C)(C)Cc3ccc(NC(=O)[C@H](CCCNC(N)=O)NC(=O)[C@@H](NC(=O)CCOCCN4C(=O)CC(C)C4=O)C(C)C)cc3)cc2C)CC(C2CCCC3C2=NN=C(NC2=Nc4ccccc4C2)C3C)=C1 (stereo partly drawn) [Ab D - L9A-P1] | 8% | 0.025 nM | 0.037 nM | 0.031 nM | 0.16 nM | 0.14 nM | 0.15 nM | –
Cc1c(Nc2nc3ccccc3s2)nnc2c1CCCN2c1ccc(-c2cnn(C[C@]34C[C@]5(C)C[C@](C)(C3)C[C@@](OCCN3CCCCCC3)(C5)C4)c2C)c(C(=O)O)n1 [P33, 3-[1-[[3-[2-(azepan-1-yl)ethoxy]-5,7-dimethyl-1-adamantyl]methyl]-5-methyl-pyrazol-4-yl]-6-[3-(1,3-benzothiazol-2-ylamino)-4-methyl-6,7-dihydro-5H-pyrido[2,3-c]pyridazin-8-yl]pyridine-2-carboxylic acid] | – | – | – | – | – | – | – | IC50 ([6]; Homo sapiens, NCI-H1650, H1650 3D, experiment n1, read-out: H1650 3D CTG IC50 n1): 0.89 nM; IC50 ([6]; Homo sapiens, NCI-H1650, H1650 3D, experiment n2, read-out: H1650 3D CTG IC50 n2): 0.57 nM; IC50 ([6]; Homo sapiens, NCI-H1650, H1650 3D, mean of n1 and n2, read-out: H1650 3D CTG IC50 Mean of n1 and n2): 0.73 nM; IC50 ([2]; mean, read-out: ALL-SILL (T-ALL) IC50 mean): 0.145 nM; IC50 [2, 7]: 0.1 nM; IC50 [2, 8]: 0.19 nM
Cc1c(Nc2nc3ccccc3s2)nnc2c1CCCN2c1nc(C(=O)O)c(CCCOc2ccc(C#CCN3CCN(C(=O)OCc4ccc(NC(=O)[C@H](CCCNC(N)=O)NC(=O)[C@@H](NC(=O)CCOCCN5C(=O)CC(C)C5=O)C(C)C)cc4)CC3)cc2F)s1 (stereo partly drawn) [Ab D - L9C-P17] | 6% | 0.006 nM | 0.01 nM | 0.008 nM | 2.1 nM | 0.38 nM | 1.24 nM | –
C=C(C)CCCC[C@](C)(NC(=O)[C@@](C)(NC(=O)CCOCCN1C(=O)CC(C)C1=O)C(C)C)C(=O)Nc1ccc(CC(C)(C)CC#Cc2ccc(OCCCC3=C(C(C)=O)N=C(N4CCCc5c4nnc(Oc4nc6ccccc6o4)c5C)C3)c(C)c2)c(S(=O)(=O)O)c1 (stereo partly drawn) [Ab D - L27A-P1] | 9% | 0.028 nM | 0.018 nM | 0.023 nM | 0.21 nM | 0.28 nM | 0.245 nM | –
C=C(C)CCCC[C@](C)(CC(=C)[C@@](C)(CC(=C)CCCCCC1C(=C)CC(C)C1=C)C(C)C)C(=C)Cc1ccc(CC(C)(C)CCC[C@]23C[C@]4(C)C[C@](C)(C2)C[C@@](CC2C=CC(c5ccc(C6CCCc7c6ccc(CC6=Cc8ccccc8C6)c7C)cc5C(=C)C)=C2C)(C4)C3)cc1 (stereo partly drawn) [Ab C - L9A-P27] | 16% | – | – | – | – | – | – | IC50 ([6]; H1650 3D, experiment n1, read-out: H1650 3D CTG IC50 n1): 0.3 nM; IC50 ([6]; H1650 3D, experiment n2, read-out: H1650 3D CTG IC50 n2): 0.22 nM; IC50 ([6]; H1650 3D, mean of n1 and n2, read-out: H1650 3D CTG IC50 Mean of n1 and n2): 0.26 nM
